Assays:
Format in all cases: in vivo
[1] = tested on: Cowpea Aphid (Aphis craccivora); assay: Cowpea aphid spray test on potted cowpea plants; conditions: sprayed cowpea plants, population reduction assessed after 24, 72 and 120 hours, read-out: mortality in comparison with untreated controls
Description: B.3 Cowpea Aphid (Aphis craccivora)
The active compound is dissolved at the desired concentration in a mixture of 1:1 (vol:vol) distilled water:acetone. The test solution is prepared at the day of use.
Potted cowpea plants colonized with approximately 100-150 aphids of various stages were sprayed after the pest population has been recorded. Population reduction was assessed after 24, 72, and 120 hours.

[2] = tested on: Vetch Aphid (Megoura viciae); assay: Vetch aphid broad bean leaf disk microtiter test; conditions: foliar, 120 h, sprayed broad bean leaf disks, 5 days, read-out: mortality in comparison with untreated controls
Description: B.4 Vetch Aphid (Megoura viciae)
For evaluating control of vetch aphid (Megoura viciae) through contact or systemic means the test unit consisted of 24-well-microtiter plates containing broad bean leaf disks.
The compounds were formulated using a solution containing 75% v/v water and 25% v/v DMSO. Different concentrations of formulated compounds were sprayed onto the leaf disks at 2.5 μl, using a custom built micro atomizer, at two replications.
After application, the leaf disks were air-dried and 5-8 adult aphids placed on the leaf disks inside the microtiter plate wells. The aphids were then allowed to suck on the treated leaf disks and incubated at about 23±1° C. and about 50±5% relative humidity for 5 days. Aphid mortality and fecundity was then visually assessed.

[3] = tested on: Cotton Aphid (Aphis gossypii); assay: Cotton aphid cotyledon dip test; conditions: 120 h, cotton cotyledons dipped, mortality counts after 5 days, read-out: mortality in comparison with untreated controls
Description: B.2 Cotton Aphid (Aphis gossypii)
The active compounds were formulated in 50:50 (vol:vol) acetone:water and 100 ppm Kinetica™ surfactant.
Cotton plants at the cotyledon stage (one plant per pot) were infested by placing a heavily infested leaf from the main colony on top of each cotyledon. The aphids were allowed to transfer to the host plant overnight, and the leaf used to transfer the aphids was removed. The cotyledons were dipped in the test solution and allowed to dry. After 5 days, mortality counts were made.

[4] = tested on: Silverleaf Whitefly (bemisia argentifolii); assay: Silverleaf whitefly spray test on cotton plants; conditions: 72 h, sprayed cotton plants, whitefly adults, 3 days after treatment, read-out: mortality in comparison with untreated controls
Description: B.5 Silverleaf Whitefly (bemisia argentifolii)
(§1) The active compounds were formulated in cyclohexanone as a 10,000 ppm solution supplied in tubes. The tubes were inserted into an automated electrostatic sprayer equipped with an atomizing nozzle and they served as stock solutions for which lower dilutions were made in 50% acetone:50% water (v/v). A nonionic surfactant (Kinetic®) was included in the solution at a volume of 0.01% (v/v).
Cotton plants at the cotyledon stage (one plant per pot) were sprayed by an automated electrostatic plant sprayer equipped with an atomizing spray nozzle. The plants were dried in the sprayer fume hood and then removed from the sprayer. Each pot was placed into a plastic cup and about 10 to 12 whitefly adults (approximately 3-5 days old) were introduced. The insects were collected using an aspirator and a nontoxic Tygon® tubing connected to a barrier pipette tip. The tip, containing the collected insects, was then gently inserted into the soil containing the treated plant, allowing insects to crawl out of the tip to reach the foliage for feeding. Cups were covered with a reusable screened lid. […] Mortality was assessed 3 days after treatment, compared to untreated control plants.

[5] = tested on: Orchid Thrips (dichromothrips corbetti); assay: Orchid thrips floral-immersion test; conditions: dipped orchid flowers, adult thrips, 72 hours after treatment, read-out: mortality in comparison with untreated controls
Description: B.7 Orchid Thrips (dichromothrips corbetti)
Dichromothrips corbetti adults used for bioassay were obtained from a colony maintained continuously under laboratory conditions. For testing purposes, the test compound is diluted in a 1:1 mixture of acetone:water (vol:vol), plus 0.01% vol/vol Alkamuls® EL 620 surfactant.
Thrips potency of each compound was evaluated by using a floral-immersion technique. Plastic petri dishes were used as test arenas. All petals of individual, intact orchid flowers were dipped into treatment solution and allowed to dry. Treated flowers were placed into individual petri dishes along with about 20 adult thrips. The petri dishes were then covered with lids. All test arenas were held under continuous light and a temperature of about 28° C. for duration of the assay. After 3 days, the numbers of live thrips were counted on each flower, and along inner walls of each petri dish. The percentmortality was recorded 72 hours after treatment.

[6] = tested on: Rice Green Leafhopper (Nephotettix virescens); assay: Rice green leafhopper spray test on rice seedlings; conditions: sprayed rice seedlings, adults, after 72 hours, read-out: mortality in comparison with untreated controls
Description: B.8 Rice Green Leafhopper (Nephotettix virescens)
(§2) Rice seedlings were cleaned and washed 24 hours before spraying. The active compounds were formulated in 50:50 acetone:water (vol:vol), and 0.1% vol/vol surfactant (EL 620) was added. Potted rice seedlings were sprayed with 5 ml test solution, air dried, placed in cages and inoculated with 10 adults. Treated rice plants were kept at about 28-29° C. and relative humidity of about 50-60%. Percent mortality was recorded after 72 hours.

[7] = tested on: Rice Brown Plant Hopper (Nilaparvata lugens); assay: Rice brown plant hopper spray test on rice seedlings; conditions: sprayed rice seedlings, adults, after 72 hours, read-out: mortality in comparison with untreated controls
Description: B.9 Rice Brown Plant Hopper (Nilaparvata lugens)
as §2, with “(vol:vol)” for “(vol:vol),”

[8] = tested on: Green Peach Aphid (Myzus persicae); assay: Green peach aphid foliar spray test on bell pepper; conditions: 120 h, sprayed bell pepper plants, aphid mortality after 5 days, read-out: mortality in comparison with untreated controls
Description: B.1 Green Peach Aphid (Myzus persicae)
as §1
Bell pepper plants at the first true-leaf stage were infested prior to treatment by placing heavily infested leaves from the main colony on top of the treatment plants. Aphids were allowed to transfer overnight to accomplish an infestation of 30-50 aphids per plant and the host leaves were removed. The infested plants were then sprayed by an automated electrostatic plant sprayer equipped with an atomizing spray nozzle. The plants were dried in the sprayer fume hood, removed, and then maintained in a growth room under fluorescent lighting in a 24-hr photoperiod at about 25° C. and about 20-40% relative humidity. Aphid mortality on the treated plants, relative to mortality on untreated control plants, was determined after 5 days.

[9] = tested on: Boll Weevil (Anthonomus grandis); assay: Boll weevil insect diet microtiter test; conditions: 120 h, sprayed onto insect diet with eggs, egg and larval mortality after 5 days, read-out: mortality in comparison with untreated controls
Description: B.6 Boll Weevil (Anthonomus grandis)
For evaluating control of boll weevil (Anthonomus grandis) the test unit consisted of 24-well-microtiter plates containing an insect diet and 20-30 A. grandis eggs.
The compounds were formulated using a solution containing 75% v/v water and 25% v/v DMSO. Different concentrations of formulated compounds were sprayed onto the insect diet at 20 μl, using a custom built micro atomizer, at two replications.
After application, microtiter plates were incubated at about 23±1° C. and about 50±5% relative humidity for 5 days. Egg and larval mortality was then visually assessed.

`CSc1nc2cccn(Cc3ccc(Cl)nc3)c-2n1` [E1.4, 4-[(6-chloro-3-pyridyl)methyl]-2-methylsulfanyl-imidazo[4,5-b]pyridine] was tested, and the mortality at 500 ppm [1] was no less than 75% and the mortality at 800 ppm [2] was no less than 75%.

Work on `FC(F)(F)c1nc2cccn(Cc3ccc(Cl)nc3)c-2n1` [E1.15, 4-[(6-chloro-3-pyridyl)methyl]-2-(trifluoromethyl)imidazo[4,5-b]pyridine] yielded a mortality at 300 ppm [3] of no less than 75%, a mortality at 500 ppm [1] of no less than 75% and a mortality at 800 ppm [2] of no less than 75%. The mortality at 500 ppm [4] was no less than 75%, the mortality at 500 ppm [5] was no less than 75% and the mortality at 500 ppm [6] was no less than 75%. For the same compound, the mortality at 500 ppm [7] was no less than 75%.

In the case of `Clc1ccc(Cn2cccc3nc(Cl)nc2-3)cn1` [E1.8, 2-chloro-4-[(6-chloro-3-pyridyl)methyl]imidazo[4,5-b]pyridine], the mortality at 300 ppm [8] was no less than 75%, the mortality at 300 ppm [3] was no less than 75% and the mortality at 500 ppm [1] was no less than 75%. For the same compound, the mortality at 800 ppm [2] was no less than 75%, the mortality at 500 ppm [4] was no less than 75% and the mortality at 2500 ppm [9] was greater than 75%. It also gave a mortality at 500 ppm [5] of no less than 75%, a mortality at 500 ppm [6] of no less than 75% and a mortality at 500 ppm [7] of no less than 75%.
